This series in a line: gradient 5% acetonitrile 3 min, to 50% in 2 min, to 85% in 15 min, held 3 min, 100 µL/min. The conditions noted are these: column: Zorbax Extend-C18 2.1 x 50 mm; eluents: water / acetonitrile, 0.1% formic acid. The gist of the method:
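Values are retention times taken from adduct peaks that software picked and an analyst inspected. The pure standards were run as mixtures of ~100 molecules on HPLC linked to a quadrupole time-of-flight mass spectrometer, in positive and negative ionization mode. A Zorbax Extend-C18 column (2.1 × 50 mm, 1.8 μm) was used at 100 μL/min with water and acetonitrile, each including 0.1% formic acid.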
`CC(C)n1c(=O)sc2cc(S(=O)(=O)N3CCC(C(=O)NCc4cccnc4)CC3)ccc21` displayed an RP-LC retention time of 808 s.

`COc1cc2nccc(Oc3ccc(NC(=O)NC4CC4)c(Cl)c3)c2cc1C(N)=O` displayed an RP-LC retention time of 633 s.

In the case of `Cc1noc(-c2ccc(S(=O)(=O)N3CCN(c4ccccn4)CC3)s2)c1C`, the RP-LC retention time is 730 s. Next, `COc1ccc(-c2c(C)noc2NC(C)=O)cc1S(=O)(=O)N1CCC2(CC1)OCCO2`: 680 s; `COc1nccnc1N1CCC(NS(=O)(=O)c2ccc(C)cc2)C1` (centres undefined): 759 s.

On to `CC(=O)N(Cc1nn(C)c2c1CN(S(=O)(=O)c1cc(C)ccc1C)CC2)c1ccccc1`, for which the RP-LC retention time turned out to be 856 s. In the case of `COc1cccc(NC(=O)Nc2nccn(-c3ccc(F)c(F)c3)c2=O)c1`, the RP-LC retention time stood at 927 s. Next, `N#Cc1ccccc1CN1C[C@@H](CO)[C@H](c2nc(C3CC3)no2)C1`: 607 s. Turning to `Cn1c(=O)n(C)c2cc(S(=O)(=O)N3CCN(c4ccccn4)CC3)c(Cl)cc21`, the RP-LC retention time is 602 s. For `O=C(Oc1cccc([N+](=O)[O-])c1)N1CCCCC1` the value was 896 s.

In turn, `CC1=C(c2ccc(C)cc2)S(=O)(=O)N=C1N1CCCN(C(=O)c2cccs2)CC1` showed an RP-LC retention time of 836 s. Next, `CN(C)c1ccc(-c2nc(C3CC(=O)N(c4ccc(F)cc4)C3)no2)cc1` (centres undefined): 975 s. Next, `COc1ccc(-n2c(=O)c3sccc3n(Cc3nc(-c4ccc(F)cc4)no3)c2=O)cc1`: 964 s; `O=C(NCc1cccnc1)c1ccc(CN2CCN(Cc3ccc(F)cc3)C(=O)C2=O)cc1`: 597 s. Next, `CCCN(CC1CCOC1)S(=O)(=O)c1cccc(F)c1` (centres undefined): 850 s; `COCCn1cc(CCNC(=O)Nc2ccccc2Cl)c2cccnc21`: 752 s; `O=C(NC1CC1)c1cc(-c2ccc(F)cc2)n[nH]1`: 705 s. In turn, `CCCCNC(=O)CN1c2ccc(F)cc2-c2ccccc2S1(=O)=O` yielded an RP-LC retention time of 884 s. For `O=C(CC1CCN(C(=O)NCc2ccccc2)CC1)NCc1cccc(F)c1` the value was 741 s; for `O=C(Cn1cccc1-c1nnc(-c2ccccc2)o1)NCc1cccs1`, 854 s. The compound `CCOCC(=O)N1CCCC1CCc1ncc(C)n1C(C)C` (centres undefined) came in with an RP-LC retention time of 574 s. Compound `CCOc1ccc(CNC(=O)C2CCN(S(=O)(=O)c3cn(CC)cn3)CC2)cc1OC` had an RP-LC retention time of 676 s.

With `Cc1cc(C(=O)NCC2CCN(C(=O)NC(C)(C)C)CC2)c(C)o1`, the RP-LC retention time came to 699 s. Next, `COCc1nc(-c2ccc(OC3CNC3)cc2)no1`: 578 s.

With `CCn1nnc2c(Nc3cccc(C(C)=O)c3)ncnc21`, the RP-LC retention time was 686 s.

In the case of `Cc1nc(-c2ccc(C(=O)N3CCC(C(=O)N4CCc5ccccc54)CC3)cc2)no1`, the RP-LC retention time was 816 s.

Regarding `CC(C)n1c(N2CCCN(C(=O)c3ccnn3C)CC2)cc(=O)n(C(C)C)c1=O`, the RP-LC retention time came out at 707 s. Next, `COc1cc(NC(=O)c2cc(C)n3nc(C)cc3n2)cc(OC)c1OC`: 847 s; `Cc1cc(C)n2nc(SCC(=O)Nc3cccc(Cl)c3)nc2n1`: 789 s. Next, `CC(=O)c1cccc(NC(=O)Cn2c(=O)n(-c3ccc(C)cc3)c(=O)c3c2cc(C)n3C)c1`: 819 s; `O=C(C1CCOCC1)N1CCC(Oc2nccnc2N2CCOCC2)C1` (centres undefined): 598 s; `O=C([C@@H]1C[C@H](F)CN1S(=O)(=O)c1cc(F)ccc1F)N1CCc2ccccc2C1`: 906 s. For `Cc1ccc(-c2nnc(-c3ccccc3Cl)o2)cc1S(=O)(=O)N(C)C` the value was 999 s; for `O=C(NCC(F)(F)F)C1CCN(C(=O)c2c(F)cccc2Cl)CC1`, 686 s; for `COc1ccc(Cl)cc1NC(=O)c1cc(C)n2nc(-c3ccco3)cc2n1`, 1300 s.

The compound `CCCNC(=O)c1cn(-c2cc(-c3nc(C)no3)ccn2)cn1` showed an RP-LC retention time of 706 s. In the case of `CCCNC(=O)N1CCC(c2cnn(-c3ccccc3)c2)CC1`, the RP-LC retention time turned out to be 779 s. With `Cn1nc(-c2nnc(-c3ccccc3Cl)o2)c2c1CCN(C(=O)COc1ccccc1)C2`, the RP-LC retention time turned out to be 864 s. Next, `Cc1ccc(Cn2cccc2C(=O)C(=O)Nc2ccc3c(c2)OCCO3)cc1`: 1090 s; `O=C1NC(c2cccc3ccccc23)Nc2ccc(Cl)cc21` (centres undefined): 847 s. For `Cc1nc(-c2nnn(-c3ccccc3)c2C)sc1C(=O)NCCc1cccs1` the value was 936 s; for `COc1ccc(-c2c(C)noc2NC(C)=O)cc1S(=O)(=O)Nc1ccc(F)cc1C`, 770 s; for `CCOC(=O)c1nc(NCCCN2CCC(Cc3ccccc3)CC2)c2ccccc2n1`, 690 s.

As for `CSc1ccc(CNC(=O)C2CCCN(c3nc4c(s3)c(C)nn4-c3ccc(F)cc3)C2)cc1` (centres undefined), the RP-LC retention time was 1190 s.

With `CCc1ccccc1NC(=O)N1CCCC(C)(C(=O)NCc2ccc(F)cc2)C1` (centres undefined), the RP-LC retention time came out at 864 s. Next, `CCOc1ccccc1NC(=O)CSc1ncc(-c2cccc(Br)c2)o1`: 1170 s; `COCCN(CC(=O)N1CCc2sccc2C1COc1ccccc1OC)C(C)=O` (centres undefined): 757 s; `COc1ccc(-c2nc(N3CCC4(CC3)OCCO4)c3ccccc3n2)cc1`: 726 s. Regarding `COCC1CN(C(=O)CN2CCCC2=O)CCC1(F)F` (centres undefined), the RP-LC retention time was 598 s.

The compound `Cc1cccc(CNC2=NCCNC23CCN(S(=O)(=O)c2ccccc2C)CC3)c1` gave an RP-LC retention time of 752 s. `COc1cccc(CNC(=O)Nc2ccc3nc(N4CCN(C)CC4)cc(C)c3c2)c1`: the RP-LC retention time came to 580 s. With `Cc1noc(-c2ccnc(-n3cnc(C(=O)NCC(C)C)c3)c2)n1`, the RP-LC retention time stood at 773 s. For `Cc1ccn2cc(-c3ccc(NS(=O)(=O)c4cc(Cl)ccc4Cl)cc3)nc2n1` the value was 691 s; for `Cc1nn(C)cc1C(C)NC(=O)C1CCN(c2cnn(Cc3ccccc3)c(=O)c2)CC1` (centres undefined), 652 s; for `O=C(c1ccc2c(c1)OCO2)N1CCC2(CC1)NC(=O)N(Cc1ccc(Cl)cc1)C2=O`, 811 s. As to `Cn1nc(C(=O)N2CCCC2)c2c1CCN(C(=O)CCC(=O)N1CCCCCC1)C2`, the RP-LC retention time amounted to 664 s. Regarding `Cc1cccc(C)c1NC(=O)CSc1cc(N2CCN(c3ccccc3F)CC2)ncn1`, the RP-LC retention time was 1100 s. In turn, `Cc1ccc(NC(=O)CN2C(=O)CCS(=O)(=O)c3ccccc32)cc1` came in with an RP-LC retention time of 761 s. For `O=C(c1cc(-c2cccc(Cl)c2)nc2ccccc12)N1CCN(c2ccccn2)CC1`, the RP-LC retention time came out at 766 s.

The values are drawn from the METLIN SMRT retention time set (Domingo-Almenara et al. 2019).
